System: Deoxycorticosterone acetate (DOCA)-salt hypertensive rats
Experiment: Effect on blood pressure in DOCA-salt hypertensive rats
Format: in vivo, rat
Details: DOCA-salt hypertensive male Wistar Kyoto rats; oral gavage in water at 15 mg/kg; 4.5 hours after administration
Protocol: Deoxycorticosterone acetate (DOCA)-salt hypertensive rats were obtained according to Pham, I. et al (1993) J. Pharmacol. Exp. Ther. 265, 1339–1347 with the following modifications: under pentobarbital anaesthesia, unilateral nephrectomy was performed in male Wistar Kyoto rats (300 g) and a pellet of 50 mg of DOCA was implanted s.c. After surgery, the rats were fed on standard rat chow and the drinking water was supplemented with 0.9% NaCl and 0.2% KCl. Hypertension developed 3 weeks after surgery.
To record arterial blood pressure, DOCA-salt rats were anaesthetized with pentobarbital sodium (50 mg/kg i.p., Sentravet laboratory, Plancoët, France), a femoral artery catheter (PE50) filled with heparinized saline (250 U/ml) was inserted, then brought under the skin and emerged at the nape of the neck. A flexible metal spring was attached to the skull and neck of the rat and connected to dual channel swivels mounted directly above the cage. This arrangement allowed the rat free movement inside the cage. […] Mean arterial BP was continuously recorded throughout each experiment using a COBE CDX III pressure transducer (Phymep, Paris, France) connected to the MacLab system (Phymep, Paris, France) composed of a MacLab technology unit and Chart software running on a Macintosh computer. […]

Structure (SMILES): Cl.Cl.NC(CCS(=O)(=O)[O-])CSSCC(N)CCS(=O)(=O)[O-].[Na+].[Na+] (stereo not shown) [Example 1, 4,4′ dithiobis (sodium 3-aminobutane-1-sulfonate) bis chlorohydrate]
- decrease of mean arterial blood pressure: 3680 Pa
